Values quoted from earlier work as cited in patent US20110142757A1, “NOVEL COMPOUNDS AND THEIR USES IN DIAGNOSIS” (the University of Sydney, priority 2008, published 2011).

System: activated microglia
Conditions: quinolinic acid-injected rat striatum

SMILES: CCC(C)N(C)C(=O)c1cc2ccccc2c(-c2ccccc2Cl)n1 (stereo not shown) [PK11195]
- Microglial activation and neuronal death: reduces microglial activation and neuronal death
